One experiment has as its target T1, OAT3h (Homo sapiens, UniProt Q8TCC7).
T1 construct: expressed in transfected cells; host or cells: 293 cells (HEK-293)
T1 sequence (Q8TCC7 1-542): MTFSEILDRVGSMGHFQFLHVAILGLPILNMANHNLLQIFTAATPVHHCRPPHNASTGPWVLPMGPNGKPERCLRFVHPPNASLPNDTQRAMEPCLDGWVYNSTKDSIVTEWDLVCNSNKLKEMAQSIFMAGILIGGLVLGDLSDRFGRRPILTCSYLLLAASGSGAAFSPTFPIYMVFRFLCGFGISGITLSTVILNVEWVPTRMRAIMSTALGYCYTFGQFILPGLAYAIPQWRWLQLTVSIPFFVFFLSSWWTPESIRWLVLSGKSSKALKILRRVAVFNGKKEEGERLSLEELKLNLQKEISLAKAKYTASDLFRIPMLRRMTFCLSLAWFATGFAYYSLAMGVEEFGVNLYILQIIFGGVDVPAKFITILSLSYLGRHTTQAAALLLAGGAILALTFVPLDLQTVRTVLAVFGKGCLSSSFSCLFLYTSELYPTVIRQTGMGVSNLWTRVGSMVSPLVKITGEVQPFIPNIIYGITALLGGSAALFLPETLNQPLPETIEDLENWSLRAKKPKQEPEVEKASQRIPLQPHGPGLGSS
The experiment in a line: 1 min uptake into 293 cells expressing OAT3h. Type of experiment: cell-based. As to conditions: for clearance: 1 min uptake, 0.1 μmol/l radiotracer. The procedure: Uptake was measured at 37° C.

The next experiment relates to 293 cells. The experiment in a line: uptake into uninduced control 293 cells (expression off). It counts as cell-based, human. As to conditions: for clearance kin: 10 μmol/l unlabeled substrate. How it is done:
Time course of trigonelline uptake. Cells grown in dishes were incubated at 37° C. with 10 μmol/l unlabeled trigonelline in uptake buffer for the indicated periods, washed, and lysed. The function for non-linear regression was y=y0+kin/kout*cout*(1−exp(−kout*x)); parameter y0 allows for trigonelline accumulation from the culture medium.
293 cells (ATCC CRL-1573; also known as HEK-293 cells), a transformed cell line derived from human embryonic kidney, were grown at 37° C. in a humidified atmosphere (5% CO2) in plastic culture flasks (Falcon 3112, Becton Dickinson, Heidelberg, Germany). The growth medium was Dulbecco's Modified Eagle Medium (Life Technologies 31885-023, Invitrogen, Karlsruhe, Germany) supplemented with 10% fetal calf serum (PAA Laboratories, Cölbe, Germany). Medium was changed every 2-3 days and the culture was split every 5 days. Stably transfected cell lines were generated as reported previously (Bach M et al. FEBS Journal 2007; 274:783-790.). As there is no integration of vector pEBTetD into the genome, clonal isolation of transfected cells is not necessary; we thus use cell pools rather than single cell clones. Cell culture medium always contained 3 μg/ml puromycin (PAA Laboratories) to ascertain plasmid maintenance. To turn on protein expression, cells were cultivated for at least 20 h in regular growth medium supplemented with 1 μg/ml doxycycline (195044, MP Biomedicals, Eschwege, Germany).
For measurement of solute uptake, cells were grown in surface culture on 60 mm polystyrol dishes (Nunclon 150288, Nunc, Roskilde, Denmark) precoated with 0.1 g/l poly-L-ornithine in 0.15 M boric acid-NaOH, pH 8.4. Cells were used for uptake experiments at a confluence of at least 70%. Uptake was measured at 37° C. Uptake buffer contains 125 mmol/l NaCl, 25 mmol/l HEPES-NaOH pH 7.4, 5.6 mmol/l (+)glucose, 4.8 mmol/l KCl, 1.2 mmol/l KH2PO4, 1.2 mmol/l CaCl2, and 1.2 mmol/l MgSO4. In glutamate efflux experiments, uptake buffer without KH2PO4 was used to avoid MS interference. After preincubation for at least 20 minutes in 4 ml of uptake buffer, the buffer was replaced with 2 ml of substrate in uptake buffer. The total substrate concentration if not indicated otherwise was 0.1 μmol/l for radiotracer assays and 10 μmol/l for unlabeled compounds. Incubation was stopped after 1 min by rinsing the cells four times each with 4 ml ice-cold uptake buffer. Radioactivity was determined, after cell lysis with 0.1% v/v Triton X-100 in 5 mmol/l TRIS-HCl pH 7.4, by liquid scintillation counting. For LCelectrospray ionization-MS/MS analysis, cells were lysed with methanol and stored at −20° C.
After centrifugation (1 min, 16000×g, 20° C.) of thawed lysates, 100 μl of the supernatant was mixed with either 10 μl unlabeled MPP+ iodide (0.5 ng/μl) or biphenyl-4-carboxylic acid (Sigma-Aldrich) as internal standard. Of this mixture, […] were analyzed by LCMS/MS on a triple quadrupole mass spectrometer (4000 Q TRAP, Applied Biosystems, Darmstadt, Germany). […] Atmospheric pressure ionization with positive or negative electrospray was used. For quantification (scan time 150 ms), the optimal collision energy for argon-induced fragmentation in the second quadrupole was determined for each analyte. […] Linear calibration curves were constructed from at least six standards which were prepared using control cell lysates as solvent. Sample analyte content was calculated from the analyte response ratio and the slope of the calibration curve, obtained by linear regression. With LC-MS quantitation, solute content of cell lysates was determined for 4 conditions (paired dishes, incubation time 1 min): a) transporter expression on, uptake buffer; b) expression off, uptake buffer; c) expression on, substrate in uptake buffer; d) expression off, substrate in uptake buffer. Acute uptake mediated by heterologously expressed carrier was then calculated as (c−a)−(d−b). This approach takes into account endogenous solute content and non-specific uptake.

Where [1] appears, read: time course, uninduced control cells.

As for `N[C@@H](CCC(=O)O)C(=O)O` [glutamate], at OAT3h, the “transport of glutamate (in words)” value is listed as “do not transport” and the clearance is listed as 0.2±0.6 μl min-1 mg protein-1.
In the case of `O=C(O)c1cc(=O)[nH]c(=O)[nH]1` [orotic acid], the clearance at OAT3h is reported as 0.7±0.1 μl min-1 mg protein-1. Moreover, the intracellular content with 293 cells (10 μmol/l unlabeled orotic acid, after 60 min, cells lacking the transporter) was 0.05 nmol/mg protein. Further, the “cell content directly after washing” value with 293 cells (1 h, 37° C. preloading with 100 μmol/l 3H-orotic acid, uninduced control cells, n=4) came out at 3.5±0.1 nmol/mg protein. Also, the “non-specific uptake into control cells, slope” value with 293 cells (saturation experiment, 1 min, expression off) amounted to 0.56 μl min-1 mg protein-1. The clearance kin in the experiment on 293 cells (setting [1]) came to 0.58±0.12 μl min-1 mg protein-1. This molecule returned a kout in the experiment on 293 cells (time course, unlabeled orotic acid, expression off) of 0.12 ± 0.03 min⁻¹.
Regarding `C[n+]1cccc(C(=O)[O-])c1` [trigonelline], the clearance kin with 293 cells (setting [1]) is 0.11±0.01 μl min-1 mg protein-1.

(Values after patent publication US20140090094A1, “MODULATORS OF SLC22A7” (BAYER INTELLECTUAL PROPERTY GmbH, priority 2011, published 2014).)
